In patent US11104664B2, “4,5,6-trisubstituted indazole derivatives, and preparation method and pharmaceutical use thereof” (SHANGHAI HAIYAN PHARMACEUTICAL TECHNOLOGY CO., LTD., priority 2016, dated 2021):

Experiments:
[1] = target: Recombinant PRC2 (EZH2-Y641F) (Homo sapiens (Human), UniProt Q15910, Y641F); test: In vitro methyltransferase activity assay (LANCE Ultra); assay type: biochemical; conditions: for IC50: 2.5 μM SAM/250 nM H3(1-50)K27me1, 3 hours, room temperature; for inhibitory activity against the enzyme (in words): SAR comment on Table 1, reduced relative to comparator compounds (P-7, P-13/14)
Recombinant PRC2 (EZH2-Y641F), sequence (Q15910 whole entry Y641F): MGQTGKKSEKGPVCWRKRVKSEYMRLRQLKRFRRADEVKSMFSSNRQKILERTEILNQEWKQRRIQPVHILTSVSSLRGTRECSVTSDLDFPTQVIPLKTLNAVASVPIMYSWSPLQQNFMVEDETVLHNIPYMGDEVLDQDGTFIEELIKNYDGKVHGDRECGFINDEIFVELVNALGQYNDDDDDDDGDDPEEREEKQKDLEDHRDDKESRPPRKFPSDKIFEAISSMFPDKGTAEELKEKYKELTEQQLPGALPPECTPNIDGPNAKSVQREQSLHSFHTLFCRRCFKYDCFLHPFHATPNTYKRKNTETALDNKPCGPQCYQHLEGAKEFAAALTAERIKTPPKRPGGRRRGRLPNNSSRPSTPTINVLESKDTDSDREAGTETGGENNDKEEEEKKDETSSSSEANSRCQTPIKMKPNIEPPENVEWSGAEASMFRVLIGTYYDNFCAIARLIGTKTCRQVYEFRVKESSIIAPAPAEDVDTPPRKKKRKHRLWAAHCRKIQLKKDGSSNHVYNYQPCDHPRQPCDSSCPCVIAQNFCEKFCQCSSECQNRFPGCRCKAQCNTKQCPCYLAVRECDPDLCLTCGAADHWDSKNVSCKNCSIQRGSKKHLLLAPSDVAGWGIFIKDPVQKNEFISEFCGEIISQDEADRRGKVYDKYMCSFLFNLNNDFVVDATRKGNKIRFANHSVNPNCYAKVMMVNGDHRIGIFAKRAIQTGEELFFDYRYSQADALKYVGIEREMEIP
Recombinant PRC2 (EZH2-Y641F), sequence (O75530 whole entry partner): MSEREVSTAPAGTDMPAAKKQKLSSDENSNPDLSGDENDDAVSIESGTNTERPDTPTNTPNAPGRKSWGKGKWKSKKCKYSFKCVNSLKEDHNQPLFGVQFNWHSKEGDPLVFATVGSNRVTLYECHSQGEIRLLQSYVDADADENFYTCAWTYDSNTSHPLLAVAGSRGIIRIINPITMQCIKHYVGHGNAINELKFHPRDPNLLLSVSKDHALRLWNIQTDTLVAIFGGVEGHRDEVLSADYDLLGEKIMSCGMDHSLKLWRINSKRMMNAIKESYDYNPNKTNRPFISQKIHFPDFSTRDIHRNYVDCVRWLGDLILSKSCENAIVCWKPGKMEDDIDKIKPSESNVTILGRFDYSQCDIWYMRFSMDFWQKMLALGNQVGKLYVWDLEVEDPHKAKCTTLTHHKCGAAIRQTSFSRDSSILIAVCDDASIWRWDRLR
Recombinant PRC2 (EZH2-Y641F), sequence (Q15022 whole entry partner): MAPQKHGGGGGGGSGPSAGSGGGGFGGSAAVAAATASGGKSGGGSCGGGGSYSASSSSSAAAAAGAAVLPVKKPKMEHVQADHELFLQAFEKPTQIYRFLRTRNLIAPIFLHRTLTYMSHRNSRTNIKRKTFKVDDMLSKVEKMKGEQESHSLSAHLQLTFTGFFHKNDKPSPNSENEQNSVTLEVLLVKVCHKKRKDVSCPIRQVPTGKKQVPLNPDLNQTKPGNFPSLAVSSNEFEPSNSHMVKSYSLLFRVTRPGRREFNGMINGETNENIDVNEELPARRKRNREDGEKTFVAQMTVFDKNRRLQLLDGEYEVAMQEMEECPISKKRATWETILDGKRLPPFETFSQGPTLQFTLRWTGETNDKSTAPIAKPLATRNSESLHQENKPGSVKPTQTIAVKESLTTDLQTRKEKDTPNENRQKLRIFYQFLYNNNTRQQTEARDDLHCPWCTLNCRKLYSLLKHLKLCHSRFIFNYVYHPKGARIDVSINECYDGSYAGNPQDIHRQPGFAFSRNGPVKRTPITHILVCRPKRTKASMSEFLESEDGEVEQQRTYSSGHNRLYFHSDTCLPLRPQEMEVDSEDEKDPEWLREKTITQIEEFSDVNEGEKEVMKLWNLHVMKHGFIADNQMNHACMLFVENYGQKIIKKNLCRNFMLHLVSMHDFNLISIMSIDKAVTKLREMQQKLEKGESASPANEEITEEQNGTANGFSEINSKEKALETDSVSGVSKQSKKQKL
Recombinant PRC2 (EZH2-Y641F), sequence (Q09028 whole entry partner): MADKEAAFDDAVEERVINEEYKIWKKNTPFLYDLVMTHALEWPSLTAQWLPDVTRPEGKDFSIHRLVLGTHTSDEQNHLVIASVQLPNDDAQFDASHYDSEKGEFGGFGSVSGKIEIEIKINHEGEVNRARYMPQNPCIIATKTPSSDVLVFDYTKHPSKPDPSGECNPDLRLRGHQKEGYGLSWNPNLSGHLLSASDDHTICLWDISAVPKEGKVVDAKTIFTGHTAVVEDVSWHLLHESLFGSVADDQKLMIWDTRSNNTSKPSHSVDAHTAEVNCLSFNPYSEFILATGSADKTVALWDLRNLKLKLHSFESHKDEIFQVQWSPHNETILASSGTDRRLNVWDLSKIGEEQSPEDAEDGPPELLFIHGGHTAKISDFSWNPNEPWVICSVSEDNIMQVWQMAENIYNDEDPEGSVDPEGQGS
Recombinant PRC2 (EZH2-Y641F), sequence (Q6ZN18 whole entry partner): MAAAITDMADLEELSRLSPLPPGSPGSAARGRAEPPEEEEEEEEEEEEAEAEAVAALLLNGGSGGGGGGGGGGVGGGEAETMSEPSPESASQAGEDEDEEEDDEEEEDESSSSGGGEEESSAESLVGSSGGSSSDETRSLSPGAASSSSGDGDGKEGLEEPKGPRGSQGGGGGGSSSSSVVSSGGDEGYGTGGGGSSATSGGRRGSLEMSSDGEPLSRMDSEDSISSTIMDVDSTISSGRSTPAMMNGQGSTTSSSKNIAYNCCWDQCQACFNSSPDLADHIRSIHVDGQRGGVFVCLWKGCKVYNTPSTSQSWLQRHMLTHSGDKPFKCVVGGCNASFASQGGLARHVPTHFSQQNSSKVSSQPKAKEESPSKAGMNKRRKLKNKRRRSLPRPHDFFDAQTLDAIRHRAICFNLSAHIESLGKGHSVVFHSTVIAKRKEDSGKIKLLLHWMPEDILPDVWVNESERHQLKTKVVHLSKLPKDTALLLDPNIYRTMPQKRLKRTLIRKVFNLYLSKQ
Procedure: Recombinant PRC2 (EZH2-Y641F) was purchased from Active motif, S-adenosyl-methionine (SAM) and Poly-L-lysine (PLL) were purchased from Sigma-Aldrich, and H3(1-50)K27me1 peptide was purchased from Cisbio. LANCEUltrasystem (Perkinelmer) was used for detection system. In the enzyme activity test, compounds to be tested were diluted by 8 gradient points in a ratio of 1:3, and added into each well in a reaction plate, and 100 ng recombinase was added, followed by a buffer [20 mM Tris pH8.5, 2 mM MgCl2, 0.01% Tween-20, 1 mM TCEP] containing 2.5 μM SAM/250 nM H3 (1-50)K27me1 premixtures. Enzymatic reaction thus began at room temperature. After reacted for 3 hours, a detection solution premixed with PLL, detection antibody and Ulight was added, and reacted for 1 hour at room temperature. The fluorescence value was then read on a Tecan infinite pro. IC50 was calculated by fitting in a four-factor model in the XLfit software.

Pfeiffer cells = test: Cell proliferation assay (Cell counting kit-8, 6 days); assay type: cell-based; conditions: Pfeiffer (CRL-2632), 6 days culture
Procedure: The used cell lines Pfeiffer (CRL-2632), suDHL-6 (CRL-2959) and suDHL-10 (CRL-2963) were obtained from American Type Culture Collection (ATCC). All cell lines were cultured in RPMI-1640 medium (Gibco) containing 10% fetal bovine serum (Gibco). The cultured cells were harvested by centrifugation and the cell density was determined using a CounterStar cell counter. Appropriate number of cells were plated in a 96-well culture plate and incubated overnight. Compounds to be tested were diluted by 8 gradient points in a ratio of 1:3 and added into corresponding wells. After continuing to culture for 6 days, the number of viable cells was measured with Cell counting kit-8, and the absorbance value was read on Tecan infinite pro. The IC50 was calculated by fitting in a four-parameter model in the XLfit software.

Row | IC50 [1] [nM] | Compound | inhibitory activity against the enzyme (in words) [1] | IC50 (Pfeiffer cells; Homo sapiens, 144 h) [nM] | IC50 (Pfeiffer cells) [nM]
1 | > 10000 | CCN(c1cc(C(=O)NCc2c(C)cc(C)[nH]c2=O)c(C)c2c1cnn2C)C1CCOCC1 [D1, N-((4,6-dimethyl-2-oxo-1,2-dihydropyridin-3-yl)methyl)-4-(ethyl(tetrahydro-2H-pyran-4-yl)amino)-1,7-dimethyl-1H-indazole-6-carboxamide, reference compound] | – | > 10000 | –
2 | 25 | CCN(c1c(C)c(C(=O)NCc2c(OC)cc(C)[nH]c2=O)cc2c1cnn2C)C1CCOCC1 [P-1, 4-(ethyl (tetrahydro-2H-pyran-4-yl)amino)-N-((4-methoxy-6-methyl-2-oxo-1,2-dihydropyridin-3-yl)methyl)-1,5-dimethyl-1H-indazole-6-carboxamide] | – | 93 | –
3 | 24 | CCN(c1c(C)c(C(=O)NCc2c(OC)cc(C)[nH]c2=O)cc2[nH]ncc12)C1CCOCC1 [P-2, 4-(ethyl(tetrahydro-2H-pyran-4-yl)amino)-N-((4-methoxy-6-methyl-2-oxo-1,2-dihydropyridin-3-yl)methyl)-5-methyl-1H-indazole-6-carboxamide] | – | – | –
4 | – | CCN(c1c(C)c(C(=O)NCc2c(OC)cc(C)[nH]c2=O)cc2c1cnn2C(F)F)C1CCOCC1 [P-5, 1-(difluoromethyl)-4-(ethyl(tetrahydro-2H-pyran-4-yl)amino)-N-((4-methoxy-6-methyl-2-oxo-1,2-dihydropyridin-3-yl)methyl)-5-methyl-1H-indazole-6-carboxamide] | – | 71 | –
5 | – | CCN(c1c(C)c(C(=O)NCc2c(C)cc(C)[nH]c2=O)cc2c1cnn2C)C1CCOCC1 [P-7, N-((4,6-dimethyl-2-oxo-1,2-dihydropyridin-3-yl)methyl)-4-(ethyl(tetrahydro-2H-pyran-4-yl)amino)-1,5-dimethyl-1H-indazole-6-carboxamide] | – | 158 | –
6 | 9 | CCN(c1c(C)c(C(=O)NCc2c(C)cc(C)[nH]c2=O)cc2c1cnn2C)C1CCC(N(C)CCOC)CC1 (stereo not drawn) [P-9, N-((4,6-dimethyl-2-oxo-1,2-dihydropyridin-3-yl)methyl)-4-(ethyl (4-((2-methoxyethyl)(methyl)amino)cyclohexyl)amino)-1,5-dimethyl-1H-indazole-6-carboxamide] | – | 32 | –
7 | 61 | CCN(c1c(C)c(C(=O)NCc2c(C)cc(C)[nH]c2=O)cc2c1cnn2C(F)F)C1CCOCC1 [P-10, 1-(difluoromethyl)-N-((4,6-dimethyl-2-oxo-1,2-dihydropyridin-3-yl)methyl)-4-(ethyl(tetrahydro-2H-pyran-4-yl)amino)-5-methyl-1H-indazole-6-carboxamide] | – | 141 | –
8 | 23 | CCN(c1c(C)c(C(=O)NCc2c(C)cc(C)[nH]c2=O)cc2c1cnn2C)[C@H]1CC[C@@H](N(C)C)CC1 [P-13, N-((4,6-dimethyl-2-oxo-1,2-dihydropyridin-3-yl)methyl)-4-(((1S, 4S)-4-(dimethylamino)cyclohexyl) (ethyl)amino)-1,5-dimethyl-1H-indazole-6-carboxamide] | – | – | –
9 | 5 | CCN(c1c(C)c(C(=O)NCc2c(C)cc(C)[nH]c2=O)cc2c1cnn2C)[C@H]1CC[C@H](N(C)C)CC1 [P-14, N-((4,6-dimethyl-2-oxo-1,2-dihydropyridin-3-yl)methyl)-4-(((1R, 4R)-4-(dimethylamino)cyclohexyl)(ethyl)amino)-1,5-dimethyl-1H-indazole-6-carboxamide] | – | – | 212
10 | 7 | CCN(c1c(C)c(C(=O)NCc2c(OC)cc(C)[nH]c2=O)cc2c1cnn2C)C1CCC(N(C)CCOC)CC1 (stereo not drawn) [P-15, 4-(ethyl(4-((2-methoxyethyl) (methyl)amino)cyclohexyl)amino)-N-((4-methoxy-6-methyl-2-oxo-1,2-dihydropyridin-3-yl)methyl)-1,5-dimethyl-1H-indazole-6-carb oxamide] | – | 76 | –
11 | 8 | CCc1c(C(=O)NCc2c(OC)cc(C)[nH]c2=O)cc2c(cnn2C)c1N(CC)C1CCOCC1 [P-16, 5-ethyl-4-(ethyl(tetrahydro-2H-pyran-4-yl)amino)-N-((4-methoxy-6-methyl-2-oxo-1,2-dihydropyridin-3-yl)methyl)-1-methyl-1H-indazole-6-carboxamide] | – | 7 | –
12 | 8 | CCc1c(C(=O)NCc2c(C)cc(C)[nH]c2=O)cc2c(cnn2C)c1N(CC)C1CCOCC1 [P-17, N-((4,6-dimethyl-2-oxo-1,2-dihydropyridin-3-yl)methyl)-5-ethyl-4-(ethyl(tetrahydro-2H-pyran-4-yl)amino)-1-methyl-1H-indazole-6-carboxamide] | – | 36 | –
13 | 45 | CCc1c(C(=O)NCc2c(C)cc(C)[nH]c2=O)cc2c(cnn2C)c1N(CC)[C@H]1CC[C@H](N2CC(OC)C2)CC1 [P-19] | – | – | 76
14 | 18 | CCc1c(C(=O)NCc2c(C)cc(C)[nH]c2=O)cc2c(cnn2C)c1N(CC)C1CCC(N(C)CCOC)CC1 [P-20, N-((4,6-dimethyl-2-oxo-1,2-dihydropyridin-3-yl)methyl)-5-ethyl-4-(ethyl((1S, 4S)-4-((2-methoxyethyl)(methyl)amino)cyclohexyl)amino)-1-methyl-1H-indazole-6-carboxamide] | – | – | 31
15 | – | CCN(c1c(C)c(C(=O)NCc2c(C)cc(C)[nH]c2=O)cc2c1cnn2CC1CCOC1)C1CCOCC1 (stereo not drawn) [P-40] | – | 268 | –
16 | 253 | CCN(c1c(C)c(C(=O)NCc2c(C)cc(C)[nH]c2=O)cc2c1c(C)nn2C)C1CCC(N(C)C)CC1 (stereo not drawn) [P-42] | greatly reduced | – | –
17 | 27 | CCN(c1c(C)c(C(=O)NCc2c(C)cc(C)[nH]c2=O)cc2c1cnn2C)C1CCC(N(C)CC(F)F)CC1 (stereo not drawn) [P-45, 4-((4-((2,2-difluoroethyl) (methyl)amino)cyclohexyl)(ethyl)amino)-N-((4,6-dimethyl-2-oxo-1,2-dihydropyridin-3-yl)methyl)-1,5-dimethyl-1H-indazole-6-carboxamide] | – | – | –
18 | 53 | CCN(c1c(C)c(C(=O)NCc2c(C)cc(C)[nH]c2=O)cc2c1cnn2C)C1CCC(C)(N)CC1 (stereo not drawn) [P-46] | – | – | –
19 | 148 | CCN(c1c(C)c(C(=O)NCc2c(OC)cc(C)[nH]c2=O)cc2nn(C)cc12)C1CCOCC1 [P-50, 4-(ethyl(tetrahydro-2H-pyran-4-yl)amino)-N-((4-methoxy-6-methyl-2-oxo-1,2-dihydropyridin-3-yl)methyl)-2,5dimethyl-2H-indazole-6-carboxamide] | significantly reduced | – | –

Row | Compound | IC50 [1] [nM] | inhibitory activity against the enzyme (in words) [1] | IC50 (Pfeiffer cells; Homo sapiens, 144 h) [nM] | IC50 (Pfeiffer cells) [nM]
20 | 7-(ethyl(tetrahydro-2H-pyran-4-yl)amino)-N-((4-methoxy-6-methyl-2-oxo-1,2-dihydropyridin-3-yl)methyl)-1,6-dimethyl-1H-imidazole-5-carboxamide [P-4] | 502 | significantly reduced | – | –
21 | CCN(c1c(C)c(C(=O)NCc2c(OC)cc(C)[nH]c2=O)cc2cn[nH]c12)C1CCOCC1 [P-3, 7-(ethyl(tetrahydro-2H-pyran-4-yl)amino)-N-((4-methoxy-6-methyl-2-oxo-1,2-dihydropyridin-3-yl)methyl)-6-methyl-1H-imidazole-5-carboxamide] | 154 | significantly reduced | – | –
22 | CCN(c1c(C)c(C(=O)NCc2c(C)cc(C)[nH]c2=O)cc2c1cnn2C)C1CCN(CC(F)(F)F)CC1 [P-8, N-((4,6-dimethyl-2-oxo-1,2-dihydropyridin-3-yl)methyl)-4-(ethyl(1-(2,2,2-trifluoroethyl)piperidin-4-yl)amino)-1,5-dimethyl-1H-indazole-6-carboxamide] | 53 | – | – | –
23 | CCN(c1c(C)c(C(=O)NCc2c(OC)cc(C)[nH]c2=O)cc2c1cnn2C)C1CCN(CC(F)(F)F)CC1 [P-11, 4-(ethyl(1-(2,2,2-trifluoroethyl)piperidin-4-yl)amino)-N-((4-methoxy-6-methyl-2-oxo-1,2-dihydropyridin-3-yl)methyl)-1,5-dimethyl-1H-indazole-6-carboxamide] | 13 | – | 292 | –
24 | CCN(c1c(C)c(C(=O)NCc2c(OC)cc(C)[nH]c2=O)cc2nn(C)cc12)C1CCN(CC(F)(F)F)CC1 [P-12, 4-(ethyl(1-(2,2,2-trifluoroethyl)piperidin-4-yl)amino)-N-((4-methoxy-6-methyl-2-oxo-1,2-dihydropyridin-3-yl)methyl)-2,5-dimethyl-2H-indazole-6-carboxamide] | 117 | – | – | –
25 | CCc1c(C(=O)NCc2c(C)cc(C)[nH]c2=O)cc2c(cnn2C)c1N(CC)C1CCC(N2CC(C)C2)CC1 [P-18, N-((4,6-dimethyl-2-oxo-1,2-dihydropyridin-3-yl)methyl)-5-ethyl-4-(ethyl((1S,4S)-4-(3-methylazetiazin-1-yl)cyclohexyl)amino)-1-methyl-1H-indazole-6-carboxamide] | 12 | – | – | 7
26 | CCN(c1c(C)c(C(=O)NCc2c(C)cc(C)[nH]c2=O)cc2c1cnn2C)C1CCN(C2CCOCC2)CC1 [P-33] | 37 | – | – | –
